# In ChEMBL document CHEMBL4402595, “Discovery of Orally Bioavailable Chromone Derivatives as Potent and Selective BRD4 Inhibitors: Scaffold Hopping, Optimization, and Pharmacological Evaluation” (J Med Chem, 2020):
# What was measured:
# [1] = molecular target: T1, Bromodomain-containing protein 4 (Homo sapiens, UniProt O60885); test: Inhibition of BRD4 in poly(I:C)-stimulated human SAECs TLR3-inducible CIG5 gene expression at 10 uM pre-incubated for 24 hrs before poly(I:C) stimulation for 4 hrs by qRT-PCR analysis relative to control
# [2] = molecular target: T1, Bromodomain-containing protein 4; test: Inhibition of BRD4 in poly(I:C)-stimulated human SAECs TLR3-inducible IL-6 gene expression at 10 uM pre-incubated for 24 hrs before poly(I:C) stimulation for 4 hrs by qRT-PCR analysis relative to control
# [3] = molecular target: T1, Bromodomain-containing protein 4; test: Inhibition of BRD4 in poly(I:C)-stimulated human SAECs TLR3-inducible CIG5 gene expression pre-incubated for 24 hrs before poly(I:C) stimulation for 4 hrs by qRT-PCR analysis
# [4] = molecular target: T1, Bromodomain-containing protein 4; test: Inhibition of BRD4 in poly(I:C)-stimulated human SAECs TLR3-inducible IL-6 gene expression pre-incubated for 24 hrs before poly(I:C) stimulation for 4 hrs by qRT-PCR analysis
# [5] = molecular target: T1, Bromodomain-containing protein 4; test: Binding affinity to recombinant BRD4 BD2 (unknown origin) incubated for 1 hr by TR-FRET assay
# [6] = molecular target: Bromodomain-containing protein 2 (Homo sapiens, UniProt P25440); test: Binding affinity to recombinant BRD2 BD2 (unknown origin) incubated for 1 hr by TR-FRET assay
# Bromodomain-containing protein 2, sequence (P25440 whole entry): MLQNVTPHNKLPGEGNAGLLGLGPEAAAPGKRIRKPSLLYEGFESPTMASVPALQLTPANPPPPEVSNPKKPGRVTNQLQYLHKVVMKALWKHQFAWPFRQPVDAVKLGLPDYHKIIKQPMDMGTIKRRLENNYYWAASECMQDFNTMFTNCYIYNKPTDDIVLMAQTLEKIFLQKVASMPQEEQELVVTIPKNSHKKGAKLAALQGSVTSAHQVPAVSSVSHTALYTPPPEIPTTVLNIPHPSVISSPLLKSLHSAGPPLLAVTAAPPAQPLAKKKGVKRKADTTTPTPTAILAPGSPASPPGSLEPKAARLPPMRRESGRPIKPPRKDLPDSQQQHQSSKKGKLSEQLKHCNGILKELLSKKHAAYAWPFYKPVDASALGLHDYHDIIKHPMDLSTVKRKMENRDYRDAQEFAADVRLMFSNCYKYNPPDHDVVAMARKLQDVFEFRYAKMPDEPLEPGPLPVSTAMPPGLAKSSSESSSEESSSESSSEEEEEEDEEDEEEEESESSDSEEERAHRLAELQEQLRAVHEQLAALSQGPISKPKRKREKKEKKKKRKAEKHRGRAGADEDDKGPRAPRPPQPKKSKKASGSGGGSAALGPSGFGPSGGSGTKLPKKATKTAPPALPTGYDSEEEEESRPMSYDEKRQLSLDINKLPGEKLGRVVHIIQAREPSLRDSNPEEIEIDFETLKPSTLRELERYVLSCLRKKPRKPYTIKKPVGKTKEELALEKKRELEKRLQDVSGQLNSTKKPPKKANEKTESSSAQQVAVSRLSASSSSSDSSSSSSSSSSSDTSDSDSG
inhibition [1] [%],inhibition [2] [%],Compound,further results
42,82,COc1cc(OC)c2c(=O)cc(-c3cc(C)c(OC[C@H](O)CN4CCOCC4)c(C)c3)oc2c1,–
–,81,Cc1cc(-c2nc3ccccc3c(=O)[nH]2)cc(C)c1O,–
–,82,COc1cc(OC)c2c(=O)cc(-c3cc(C)c(OC[C@H](O)CN(C)C)c(C)c3)oc2c1,–
100,100,COc1cc(OC)c2c(=O)cc(-c3cc(C)c(OC[C@@H](O)CN4CCCCC4)c(C)c3)oc2c1,IC50 [3]: 580 nM; IC50 [4]: 540 nM; IC50 [5]: 93 nM; IC50 [6]: 1200 nM
–,45,COc1cc(OC)c2c(=O)[nH]c(-c3ccc(C(F)(F)F)c(C)c3)nc2c1,–
2.2,59,O=c1[nH]c(-c2cc(F)c(O)cc2F)nc2ccccc12,–
18,55,Cc1cc(-c2nc3ccccc3c(=O)n2C)cc(C)c1O,–
85,90,COc1cc(OC)c2c(=O)cc(-c3cc(C)c(OC[C@@H](F)CN4CCCCC4)c(C)c3)oc2c1,–
97,98,COc1cc(OC)c2c(=O)cc(-c3cc(C)c(OCCO)c(C)c3)oc2c1,IC50 [3]: 2600 nM; IC50 [4]: 2800 nM
–,75,COc1cc(OC)c2c(=O)[nH]c(-c3cc(C)c(O)c(C)c3)nc2c1,–
83,80,COc1cc(OC)c2c(=O)[nH]c(-c3cc(C)c(OC[C@@H](O)CN4CCN(C)CC4)c(C)c3)nc2c1,IC50 [3]: 2600 nM; IC50 [4]: 3500 nM
84,65,COc1cc(OC)c2c(=O)[nH]c(-c3cc(C)c(OCCO)c(C)c3)nc2c1,–
42,66,COc1cc(OC)c2c(=O)[nH]c(-c3ccc(O)cc3Cl)nc2c1,–
43,25,Cc1cc(-c2nc3ccc(Br)cc3c(=O)[nH]2)cc(C)c1O,–
–,86,Cc1cc(-c2nc3cc([N+](=O)[O-])ccc3c(=O)n2C)cc(C)c1O,–
83,–,C=CCOc1c(C)cc(-c2cc(=O)c3c(OC)cc(OC)cc3o2)cc1C,–
81,63,COc1cc(OC)c2c(=O)[nH]c(-c3ccc(O)cc3)nc2c1,–
45,–,COc1cc(OC)c2c(=O)[nH]c(-c3ccc(C(F)(F)F)cc3)nc2c1,–
92,99,COc1cc(OC)c2c(=O)cc(-c3cc(C)c(OC[C@H](O)CN4CCCC4)c(C)c3)oc2c1,IC50 [3]: 1480 nM; IC50 [4]: 970 nM
51,15,Cc1cc(-c2nc3cc(Br)ccc3c(=O)[nH]2)cc(C)c1O,–
87,83,COc1cc(OC)c2c(=O)[nH]c(-c3cc(C)c(OC[C@@H]4CO4)c(C)c3)nc2c1,–
63,88,COc1cc(OC)c2c(=O)cc(-c3cc(C)c(OC[C@H](O)CN4CCC(F)(F)CC4)c(C)c3)oc2c1,–
33,62,Cc1cc(-c2nc3cccc(F)c3c(=O)[nH]2)cc(C)c1O,–
-4.5,62,Cc1cc(-c2nc3ccc(F)cc3c(=O)[nH]2)cc(C)c1O,–
37,53,Cc1cc(-c2nc3ccc(Cl)cc3c(=O)[nH]2)cc(C)c1O,–
71,–,Cc1cc(-c2nc3cc(-c4ccn(C)n4)ccc3c(=O)[nH]2)cc(C)c1O,–
61,59,COc1cc(-c2nc3ccccc3c(=O)[nH]2)cc(OC)c1O,–
